Data from patent publication US4298375A, “2-Substituted-5-phenyl-4-thiazolecarboxylic acids and their derivatives as safening agents” (Monsanto Company, priority 1979, dated 1981).

What was measured:
Format in all cases: in vivo
sorghum [1] = test: Example 6: herbicidal effect on sorghum of alachlor with or without safening agent, soil treated with mixture, approximately 21 days; conditions: for safening when tested in accordance with the procedure of Example 6: alachlor
Experimental: (§1) A good grade of top soil was placed in a plastic pot and compacted to a depth of approximately 1.27 cm. from the top of said pot. A predetermined number of sorghum seeds and weed seeds were placed on top of the soil. A cover layer, approximately 1.27 cm., was placed on top of said seeds. The soil was then treated with a mixture of the safening agent and alachlor dispersed or dissolved in a suitable solvent. For each test series, pots were treated with only the herbicide. Additionally, pots were treated with only the safening agent. The herbicidal effect was observed approximately 21 days after treatment. Table IV summarizes the results obtained when the compounds of the invention were tested in accordance with the procedure of Example 6. Note that in each test a control is used in which the sorghum plants are treated with various rates of alachlor herbicide alone.

sorghum [2] = test: Example 5: safening against triallate, alachlor or butachlor, safener and herbicide incorporated in soil, greenhouse, approximately 21 days; parameters: key: (herbicide alone + safener alone, capped at 100) minus combination effect; conditions: safening agent 8.96 kg/h
Experimental: A good grade of top soil is placed in a container and compacted to a depth of approximately 1.27 cm. from the top of said container. A predetermined number of sorghum seeds to be tested are placed on top of the soil. A quantity of soil sufficient to substantially fill the container is measured and placed in a second container. A measured quantity of the safening agent dispersed or dissolved in a suitable carrier is applied to the soil in the second container. A measured quantity of triallate, alachlor or butachlor herbicide dispersed or dissolved in a suitable carrier is then sprayed on the soil already treated with the safening agent. The soil containing the safening agent and the herbicide is thoroughly mixed. This mixing is sometimes referred to as incorporation of the herbicide and safening agent into the soil. The mixing or incorporation provides a substantially uniform distribution of the safening agent and herbicide throughout the soil. The sorghum seeds are covered with the soil containing the safening agent and herbicide and the pans are leveled. The pans are then placed on a sand bench in the greenhouse and watered from below as needed. The sorghum plants are observed at the end of approximately 21 days and the results in terms of percent inhibition of each seed lot are recorded. For each test series a pan of plants is also prepared containing no herbicide and no safening agent as a control. Additionally, for each test, a pan of plants is prepared with soil covering the seed containing no herbicide and only the measured amount of safening agent being incorporated into the soil covering the seeds to ascertain any herbicidal effect of the safening agent alone. For each series of tests the herbicidal effect of the herbicide is observed from pans of sorghum plants tested with the same quantity of herbicide alone. The "safening effect" is determined by adding the herbicidal effect of the herbicide when applied alone to the herbicidal effect of the safening agent when applied alone (in no instance, however, will this sum be greater than 100) and subtracting from that the herbicidal effect obtained when the herbicide and safening agent are incorporated into the soil as discussed above.

Green Foxtail = test: Example 6: herbicidal effect on weed (Green Foxtail) of alachlor with or without safening agent, soil treated with mixture, approximately 21 days
Experimental: as §1

[3] = alachlor 2.24 kg/h, (herbicide alone + safener alone) minus combination
[4] = butachlor 6.72 kg/h, value given as symbol *
[5] = triallate 0.56 kg/h, (herbicide alone + safener alone) minus combination
[6] = alachlor alone 0.56 kg/h, no safening agent, first test
[7] = alachlor alone 0.56 kg/h, no safening agent, second test
[8] = alachlor alone 1.12 kg/h, no safening agent, first test
[9] = alachlor alone 1.12 kg/h, no safening agent, second test
[10] = alachlor alone 2.24 kg/h, no safening agent, first test
[11] = alachlor alone 2.24 kg/h, no safening agent, second test
[12] = alachlor alone 4.48 kg/h, no safening agent, first test
[13] = alachlor alone 4.48 kg/h, no safening agent, second test
[14] = safening agent 8.96 kg/h + alachlor 0.56 kg/h
[15] = safening agent 8.96 kg/h + alachlor 1.12 kg/h
[16] = safening agent 8.96 kg/h + alachlor 4.48 kg/h
[17] = safening agent 8.96 kg/h alone, alachlor 0.00 kg/h
[18] = safening agent 9.96 kg/h (so in the source) + alachlor, rate not printed on this line (line below 4.48 kg/h)
[19] = safening agent 8.96 kg/h + alachlor 2.24 kg/h
[20] = butachlor 6.72 kg/h, (herbicide alone + safener alone) minus combination

COC(=O)c1nc(Sc2ccccc2)sc1-c1ccccc1 [Example 4, Methyl 5-Phenyl-2-Phenylthio-4-Thiazolecarboxylate]
safening when tested in accordance with the procedure of Example 6 (sorghum [1]): no significant safenin
Safening Effect (sorghum [2]; [3]): 20
Safening Effect (sorghum [2]; [4]): * (Observed safening effect was less than 19.)
Safening Effect (sorghum [2]; [5]): 35

CCc1cccc(CC)c1N(COC)C(=O)CCl [Alachlor, 2-chloro-2',6'-diethyl-N-(methoxymethyl)acetanilide, reference compound]
% Inhibition Sorghum (sorghum [1]; [6]): 80%
% Inhibition Sorghum (sorghum [1]; [7]): 80%
% Inhibition Sorghum (sorghum [1]; [8]): 85%
% Inhibition Sorghum (sorghum [1]; [9]): 85%
% Inhibition Sorghum (sorghum [1]; [10]): 90%
% Inhibition Sorghum (sorghum [1]; [11]): 85%
% Inhibition Sorghum (sorghum [1]; [12]): 95%
% Inhibition Sorghum (sorghum [1]; [13]): 100%
% Inhibition Green Foxtail (Green Foxtail; [6]): 98%
% Inhibition Green Foxtail (Green Foxtail; [7]): 98%
% Inhibition Green Foxtail (Green Foxtail; [8]): 99%
% Inhibition Green Foxtail (Green Foxtail; [9]): 98%
% Inhibition Green Foxtail (Green Foxtail; [10]): 100%
% Inhibition Green Foxtail (Green Foxtail; [11]): 98%
% Inhibition Green Foxtail (Green Foxtail; [12]): 100%
% Inhibition Green Foxtail (Green Foxtail; [13]): 100%

COC(=O)c1nc(OC)sc1-c1ccccc1 [Example 3, Methyl 2-Methoxy-5-Phenyl-4-Thiazolecarboxylate]
% Inhibition Sorghum (sorghum [1]; [14]): 50%
% Inhibition Sorghum (sorghum [1]; [15]): 65%
% Inhibition Sorghum (sorghum [1]; [16]): 40%
% Inhibition Sorghum (sorghum [1]; [17]): 0%
% Inhibition Sorghum (sorghum [1]; [18]): 75%
% Inhibition Green Foxtail (Green Foxtail; [14]): 100%
% Inhibition Green Foxtail (Green Foxtail; [15]): 100%
% Inhibition Green Foxtail (Green Foxtail; [16]): 100%
% Inhibition Green Foxtail (Green Foxtail; [17]): 0%
% Inhibition Green Foxtail (Green Foxtail; [18]): 100%
Safening Effect (sorghum [2]; [3]): 23
Safening Effect (sorghum [2]; [4]): * (Observed safening effect was less than 19.)
Safening Effect (sorghum [2]; [5]): 37

COC(=O)c1nc(Cl)sc1-c1ccccc1 [Example 2, Methyl 2-Chloro-5-Phenyl-4-Thiazolecarboxylate]
% Inhibition Sorghum (sorghum [1]; [14]): 30%
% Inhibition Sorghum (sorghum [1]; [15]): 65%
% Inhibition Sorghum (sorghum [1]; [19]): 70%
% Inhibition Sorghum (sorghum [1]; [16]): 70%
% Inhibition Sorghum (sorghum [1]; [17]): 0%
% Inhibition Green Foxtail (Green Foxtail; [14]): 100%
% Inhibition Green Foxtail (Green Foxtail; [15]): 100%
% Inhibition Green Foxtail (Green Foxtail; [19]): 100%
% Inhibition Green Foxtail (Green Foxtail; [16]): 100%
% Inhibition Green Foxtail (Green Foxtail; [17]): 0%
Safening Effect (sorghum [2]; [3]): 20
Safening Effect (sorghum [2]; [20]): 40
Safening Effect (sorghum [2]; [5]): 45

COC(=O)c1nc(N)sc1-c1ccccc1 [Example 1, Methyl 2-Amino-5-Phenyl-4-Thiazolecarboxylate]
safening when tested in accordance with the procedure of Example 6 (sorghum [1]): no significant safenin
Safening Effect (sorghum [2]; [3]): 24
Safening Effect (sorghum [2]; [20]): 35
Safening Effect (sorghum [2]; [5]): 56
